Holding throughout (assay): NCI tumour cell line growth inhibition, 48 h
Test [1] has as its system SNB-75 CNS.
Test [2] concerns SR leukemia.
In test [3] the test system is NCI/ADR-RES ovarian.
The subject of test [4] is HT29 colon.
For test [5], the system named is OVCAR-8 ovarian.
The test system of test [6] is HS 578T breast.
Test [7] relates to KM12 colon.
For test [8], the system named is DU-145 prostate.
Test [9] has as its system NCI-H522 lung.
Test [10] deals with HL-60(TB) leukemia.
For test [11], the system named is RPMI-8226 leukemia.
In test [12] the test system is SF-295 CNS.
In test [13] the test system is UACC-62 melanoma.
Test [14] relates to EKVX NSCLC.
For test [15], the system named is TK-10 renal.
Test [16] relates to 786-0 renal.
Test [17] deals with A498 renal.
Test [18] concerns SNB-19 CNS.
Test [19] relates to MCF7 breast.
For test [20], the system named is SK-MEL-2 melanoma.

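Briefly, cells in 96-well plates were exposed to five compound concentrations for 48 h, and endpoints were estimated by linear interpolation. TGI marks complete inhibition of growth.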 Bounds are passed on as bounds.

Here are results for 15 compounds from PubChem BioAssay (NCI).

With `COC(=O)C1(Cc2ccccc2)Cc2cc3c(cc2C1O)CCC3` (centres undefined), the TGI in [1] was above 100 µM; in test [2], above 100 µM; in [3], 76.8 µM; in test [4], 31.6 µM; in test [5], 65.4 µM; in test [6], 34.7 µM. Besides, the TGI was 48.3 µM in test [7]; 70.8 µM in test [8]; 34.4 µM in [9]; above 100 µM in [10]; 54.9 µM in test [11]; 72 µM in [12]. The TGI in test [13] was 32.6 µM; in test [14] it was 50.4 µM; in [15] it was 67.2 µM; in test [16] it was 28.9 µM; in test [17], 40.2 µM.
In the case of `CC[C@]12C=CCN3CC[C@@]4(c5cc(Br)c(OC)cc5N(C)[C@H]4[C@@](O)(C(=O)NC(Cc4c[nH]c5ccccc45)C(=O)OC)[C@@H]1O)[C@@H]32` (some centres undefined), the TGI in test [1] is above 100 µM; in test [2], 34.9 µM; in test [3], above 100 µM; in test [4], above 100 µM; in [5], above 100 µM; in test [6] it was above 100 µM. The TGI in [18] was above 100 µM; in [7] it was above 100 µM; in test [8], above 100 µM; in [9], above 100 µM; in [10], 91.3 µM; in test [11], 46.3 µM. Also, the TGI in test [19], in test [12], in test [13], in test [20], in [14] and in test [16] was above 100 µM each time.
With `NC(=S)N1N=C2c3ccccc3CCC[C@H]2[C@@H]1c1ccccc1`, the TGI in test [1] was 0.9 µM; in test [2], above 32.9 µM; in [3] it was 3 µM; in [4] it was 6.18 µM; in [5], 17.4 µM; in test [6], 17.4 µM. In addition, the TGI was found to be 25.2 µM in test [18]; 18.3 µM in [7]; 9.27 µM in test [8]; 1.42 µM in [9]; 17.2 µM in test [11]; 25.3 µM in [19]. For the same compound, the TGI in [12] came out at 10.6 µM; in test [20] it was 5.94 µM; in test [14], 70.2 µM; in [15], 52 µM; in test [16], 21.8 µM; in test [17], 23.3 µM.
Turning to `CCSc1nc(N/N=C/c2cccs2)c2cnn(CO)c2n1`, the TGI in test [1] was found to be 28.7 µM; in [2] it was 26.7 µM; in test [3] it was 15.9 µM; in test [4], 13.4 µM; in test [5], 14.9 µM; in test [6], 15.3 µM. Further, the TGI in test [18] turned out to be 27.1 µM; in test [7], 12.4 µM; in test [8], 24.3 µM; in test [9], 15.5 µM; in test [10], 42.1 µM; in [19], 14.4 µM. Besides, the TGI in [12] turned out to be 29.8 µM; in test [13], 22.5 µM; in [20], 24.4 µM; in test [14], 25.6 µM; in test [15] it was 21.9 µM; in [16], 6.34 µM. In test [17], this compound gave a TGI of 9.53 µM.
Turning to `COc1ccc(C2=NNC(=O)c3ccccc3N2c2nc(-c3cccs3)nc3cc(OC)c(OC)cc23)cc1`, the TGI in test [1] was 14.1 µM; in [2] it was above 100 µM; in test [3], above 100 µM; in test [5] it was above 100 µM; in [6], 27.5 µM; in test [18], above 100 µM. Moreover, the TGI in test [7] was above 100 µM; in test [8], above 100 µM; in test [9] it was 88 µM; in test [11], above 100 µM; in test [19], 9 µM; in test [12], 9.9 µM. Further, the TGI in test [13] was 5.79 µM; in test [20] it was 44.2 µM; in test [14], above 100 µM; in [15], 21 µM; in test [16], 12.1 µM; in test [17], 10.5 µM.
Regarding `CC#CCCCC1(C)CCNC1=S` (centres undefined), the TGI in test [1], in [2], in test [4], in [5], in test [6] and in test [18] was above 10 µM throughout. Also, the TGI in [7], in test [8], in test [9], in test [10], in test [19] and in test [12] was above 10 µM throughout. The TGI in test [20], in test [14], in test [15] and in test [16] was above 10 µM in each case.
On to `O=S(=O)(c1ccccc1)c1ccc(-c2nc(-c3ccc4c(c3)Sc3ccccc3S4)cs2)cc1`, for which the TGI in [1] is 25.3 µM; in test [2] it was above 100 µM; in test [4] it was above 100 µM; in [5], above 100 µM; in test [6], above 100 µM; in [18], above 100 µM. For the same compound, the TGI is above 100 µM in [7]; above 100 µM in test [8]; above 100 µM in [10]; above 100 µM in [11]; above 100 µM in test [19]; 47.4 µM in test [12]. Moreover, the TGI in [13] is above 100 µM; in test [14], above 100 µM; in test [15], 73.6 µM; in test [16], 45.1 µM.
Turning to `COc1ccc(-c2nnc3n(C)c4ccccc4n3c2=O)cc1`, the TGI is 60.4 µM in test [1]; above 100 µM in test [2]; above 100 µM in test [3]; above 100 µM in [4]; above 100 µM in test [5]; above 100 µM in test [6]. For the same compound, the TGI in test [18], in test [7], in test [8], in [9], in test [10] and in test [19] was above 100 µM in each case. Also, the TGI in [12] was 84.3 µM; in [20], above 100 µM; in test [14], above 100 µM; in test [15] it was above 100 µM; in test [16], above 100 µM; in test [17], above 100 µM.
In the case of `COc1ccc2[nH]c3c(c2c1)CC(=O)N1CCC[C@H](C1)CC31OCCCO1`, the TGI in [1], in test [2], in test [3], in [4], in test [5] and in test [6] was above 100 µM in each case. The TGI in test [18], in test [7], in test [8], in test [11], in [19] and in test [12] was above 100 µM throughout. Besides, the TGI in test [13], in test [20], in [14], in test [15], in test [16] and in test [17] was above 100 µM throughout.
For the compound `O=C(O)c1nn(-c2ccccc2)nc1-c1nn(-c2ccccc2)nc1C(=O)O`, the TGI in test [2], in test [3], in test [4], in test [5], in test [6] and in test [18] was above 100 µM each time. Further, the TGI in test [7], in [8], in [10], in [11], in test [19] and in [12] was above 100 µM in each case. Moreover, the TGI in test [13], in test [20], in test [14], in [15] and in test [16] was above 100 µM each time.
`Cc1cc(C)n(-c2nc(C)c(CCO)c(=O)[nH]2)n1`: the TGI in [1], in test [2], in test [3], in test [4], in test [5] and in test [6] was above 100 µM each time. Further, the TGI in test [18], in test [7], in test [8], in test [9], in [10] and in test [11] was above 100 µM throughout. The TGI in [19], in [12], in test [13], in test [14], in test [15] and in test [16] was above 100 µM each time.
As to `COc1cccc(CCNc2c(C#N)c3n(c4ccccc4[n+]3C)c3ncccc23)c1`, the TGI in [1] was 12.8 µM; in test [2], above 100 µM; in test [3], above 51 µM; in test [4], 3.14 µM; in [5], 3.87 µM; in [6], 15 µM. For the same compound, the TGI amounted to 18.8 µM in [18]; 4.53 µM in test [7]; 11.3 µM in test [8]; 10.3 µM in [9]; 6.59 µM in [11]; 5.13 µM in [19]. In addition, the TGI in [12] was 3.67 µM; in test [13], above 59.4 µM; in test [20], 43.3 µM; in [14], 36.5 µM; in [15], 50.1 µM; in test [16], 3.35 µM. The same compound had a TGI in test [17] of 57 µM.
In the case of `O=C(NC1=C(Cl)C(=O)c2ccccc2C1=O)C(=O)C(C(=O)c1ccc2ccccc2c1)C1OC(=O)c2ccccc21` (centres undefined), the TGI was 13.6 µM in test [1]; 29.4 µM in test [2]; 17.7 µM in test [4]; 24.5 µM in test [5]; 45.2 µM in test [6]; 19 µM in test [18]. Also, the TGI worked out at 13.7 µM in test [7]; 23.9 µM in test [8]; 12.1 µM in test [9]; 7.6 µM in [10]; 26.2 µM in test [11]; 16.8 µM in test [19]. Also, the TGI in [12] was found to be 14.9 µM; in test [13] it was 4.31 µM; in test [20] it was 19.1 µM; in test [14], 24.7 µM; in test [15], 65.1 µM; in [16], 20.6 µM. Further, the TGI in test [17] amounted to 18.4 µM.
On to `Cc1cc(C)c2c(n1)S(=O)(=O)N(CCCN1CCN(c3cccc(Cl)c3)CC1)/C(=C(\O)c1ccc(Br)cc1)C2=O`, for which the TGI was 28.3 µM in test [1]; above 100 µM in test [2]; above 100 µM in [3]; 98.8 µM in test [4]; above 100 µM in test [5]; above 100 µM in test [6]. The TGI in [18] is 98.4 µM; in [7], above 100 µM; in test [8] it was above 100 µM; in test [9] it was above 100 µM; in test [10] it was 45.4 µM; in test [19], above 100 µM. Further, the TGI in [12] is 86 µM; in test [13], above 100 µM; in test [20], 69.4 µM; in [14], 57 µM; in test [15], 60.8 µM; in test [16], 38.2 µM. In addition, the TGI in test [17] is above 100 µM.
In the case of `CCNC(=S)NNC(=O)c1ccccc1Nc1ccccc1C(=O)NNC(=S)NCC`, the TGI in test [1], in [2], in [3], in test [4], in test [5] and in [6] was above 100 µM in each case. Further, the TGI in test [18], in test [7], in test [8], in [9], in test [10] and in test [11] was above 100 µM throughout. Besides, the TGI in test [19], in test [12], in [13], in test [20], in test [14] and in test [15] was above 100 µM each time. In test [16], this compound registered a TGI above 100 µM.
